Measurements as given in patent US4540699A, “N-Substituted pyridinones having histamine H2 -antagonist activity” (Smith Kline & French Laboratories Limited, priority 1982, dated 1985).

Test system: histamine H2 -receptors
Experiment: inhibition of histamine-stimulated gastric acid secretion in urethane-anaesthetised rats after intraduodenal and intravenous injection
Assay type: in vivo, rat
Settings: ratio intraduodenal/intravenous dose for 50% inhibition; rats anaesthetised with urethane
Protocol: The inhibition of histamine-stimulated secretion of gastric acid in rats anaesthetised with urethane was measured after administration of test compounds by intraduodenal injection and intravenous injection. For the compound of Example 2 the intraduodenal dose required to produce 50% inhibition was only 3 times the intravenous dose required to produce a similar effect, and for the compound of Example 10 the intraduodenal dose required was 10 times the intravenous dose. In contrast the compound of Example 7 of EP-A-3677 required an intraduodenal dose 500 times that of the intravenous dose required to inhibit acid secretion by 50%. Good activity after intraduodenal injection is indicative that there will good activity after oral administration.

## CN(C)Cc1ccc(CSCCNc2ncc(Cc3ccn(C)c(=O)c3)c(=O)[nH]2)o1 [Example 2, 2-[2-(2-Dimethylaminomethyl-5-furylmethylthio)ethylamino]-5-(1-methyl-2-oxopyridin-4-ylmethyl)pyrimidin-4-one]
  intraduodenal dose required to produce 50% inhibition of acid secretion relative to the intravenous dose: 3 times

## Cn1ccc(Cc2cnc(NCCCOc3cccc(CN4CCCCC4)c3)[nH]c2=O)cc1=O [Example 10, 2-[3-[3-(Piperidinomethyl)phenoxy]propylamino]-5-(1-methyl-2-oxopyridin-4-ylmethyl)pyrimidin-4-one]
  intraduodenal dose required to produce 50% inhibition of acid secretion relative to the intravenous dose: 10 times
